According to PubChem BioAssay (NCI):
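GI50 = concentration required for 50% inhibition of growth. TGI: total growth inhibition.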

Assays:
Assay in all cases: DTP human tumour cell line panel, 384-well format
SK-MEL-2 melanoma = tested on: SK-MEL-2 melanoma
OVCAR-4 ovarian = tested on: OVCAR-4 ovarian
MDA-MB-231 breast = tested on: MDA-MB-231 breast
UACC-257 melanoma = tested on: UACC-257 melanoma
MDA-MB-468 breast = tested on: MDA-MB-468 breast
NCI-H460 NSCLC = tested on: NCI-H460 NSCLC
NCI/ADR-RES ovarian = tested on: NCI/ADR-RES ovarian
SNB-19 CNS = tested on: SNB-19 CNS
SN12C renal = tested on: SN12C renal
MDA-MB-435 melanoma = tested on: MDA-MB-435 melanoma
NCI-H226 lung = tested on: NCI-H226 lung
COLO 205 colon = tested on: COLO 205 colon
EKVX NSCLC = tested on: EKVX NSCLC
CAKI-1 renal = tested on: CAKI-1 renal
DU-145 prostate = tested on: DU-145 prostate
SF-295 CNS = tested on: SF-295 CNS
HCT-15 colon = tested on: HCT-15 colon
A549 NSCLC = tested on: A549 NSCLC
HOP-62 NSCLC = tested on: HOP-62 NSCLC
BT-549 breast = tested on: BT-549 breast
TK-10 renal = tested on: TK-10 renal
OVCAR-5 ovarian = tested on: OVCAR-5 ovarian
RPMI-8226 leukemia = tested on: RPMI-8226 leukemia
UO-31 renal = tested on: UO-31 renal
SF-539 CNS = tested on: SF-539 CNS
U251 glioblastoma = tested on: U251 glioblastoma
A498 renal = tested on: A498 renal
LOX IMVI melanoma = tested on: LOX IMVI melanoma
SK-MEL-28 melanoma = tested on: SK-MEL-28 melanoma
OVCAR-3 ovarian = tested on: OVCAR-3 ovarian
IGROV1 ovarian = tested on: IGROV1 ovarian
RXF 393 renal = tested on: RXF 393 renal
SF-268 CNS = tested on: SF-268 CNS
K-562 leukemia = tested on: K-562 leukemia
HOP-92 NSCLC = tested on: HOP-92 NSCLC
786-0 renal = tested on: 786-0 renal
NCI-H522 lung = tested on: NCI-H522 lung
UACC-62 melanoma = tested on: UACC-62 melanoma
PC-3 prostate = tested on: PC-3 prostate
M14 melanoma = tested on: M14 melanoma
HCT-116 colon = tested on: HCT-116 colon
ACHN renal = tested on: ACHN renal
SK-OV-3 ovarian = tested on: SK-OV-3 ovarian
NCI-H23 lung = tested on: NCI-H23 lung
CCRF-CEM leukemia = tested on: CCRF-CEM leukemia
HS 578T breast = tested on: HS 578T breast
MALME-3M melanoma = tested on: MALME-3M melanoma

Compound: O=C(CCCCCCC(=O)N/N=C/c1ccc(N(c2ccccc2)c2ccccc2)cc1)NO
- GI50 (SK-MEL-2 melanoma): 1450 nM
- TGI (SK-MEL-2 melanoma): 2830 nM
- GI50 (OVCAR-4 ovarian): 686 nM
- TGI (OVCAR-4 ovarian): 2000 nM
- GI50 (MDA-MB-231 breast): 1900 nM
- TGI (MDA-MB-231 breast): 4600 nM
- GI50 (UACC-257 melanoma): 589 nM
- TGI (UACC-257 melanoma): 1310 nM
- GI50 (MDA-MB-468 breast): 137 nM
- TGI (MDA-MB-468 breast): 277 nM
- GI50 (NCI-H460 NSCLC): 1160 nM
- TGI (NCI-H460 NSCLC): 2450 nM
- GI50 (NCI/ADR-RES ovarian): 4360 nM
- TGI (NCI/ADR-RES ovarian): 15900 nM
- GI50 (SNB-19 CNS): 2780 nM
- TGI (SNB-19 CNS): 7200 nM
- GI50 (SN12C renal): 1830 nM
- TGI (SN12C renal): 3620 nM
- GI50 (MDA-MB-435 melanoma): 3910 nM
- TGI (MDA-MB-435 melanoma): 11900 nM
- GI50 (NCI-H226 lung): 187 nM
- TGI (NCI-H226 lung): 365 nM
- GI50 (COLO 205 colon): 2120 nM
- TGI (COLO 205 colon): 3850 nM
- GI50 (EKVX NSCLC): 2620 nM
- TGI (EKVX NSCLC): 6520 nM
- GI50 (CAKI-1 renal): 256 nM
- TGI (CAKI-1 renal): 1140 nM
- GI50 (DU-145 prostate): 1740 nM
- TGI (DU-145 prostate): 3370 nM
- GI50 (SF-295 CNS): 1750 nM
- TGI (SF-295 CNS): 3370 nM
- GI50 (HCT-15 colon): 2800 nM
- TGI (HCT-15 colon): 7260 nM
- GI50 (A549 NSCLC): 1840 nM
- TGI (A549 NSCLC): 3830 nM
- GI50 (HOP-62 NSCLC): 2040 nM
- TGI (HOP-62 NSCLC): 5860 nM
- GI50 (BT-549 breast): 2420 nM
- TGI (BT-549 breast): 4880 nM
- GI50 (TK-10 renal): 255 nM
- TGI (TK-10 renal): 720 nM
- GI50 (OVCAR-5 ovarian): 665 nM
- TGI (OVCAR-5 ovarian): 2090 nM
- GI50 (RPMI-8226 leukemia): 260 nM
- TGI (RPMI-8226 leukemia): 574 nM
- GI50 (UO-31 renal): 1730 nM
- TGI (UO-31 renal): 8200 nM
- GI50 (SF-539 CNS): 2150 nM
- TGI (SF-539 CNS): 4880 nM
- GI50 (U251 glioblastoma): 1610 nM
- TGI (U251 glioblastoma): 3070 nM
- GI50 (A498 renal): 146 nM
- TGI (A498 renal): 283 nM
- GI50 (LOX IMVI melanoma): 190 nM
- TGI (LOX IMVI melanoma): 369 nM
- GI50 (SK-MEL-28 melanoma): 2890 nM
- TGI (SK-MEL-28 melanoma): 8290 nM
- GI50 (OVCAR-3 ovarian): 673 nM
- TGI (OVCAR-3 ovarian): 1900 nM
- GI50 (IGROV1 ovarian): 413 nM
- TGI (IGROV1 ovarian): 1460 nM
- GI50 (RXF 393 renal): 790 nM
- TGI (RXF 393 renal): 2100 nM
- GI50 (SF-268 CNS): 1990 nM
- TGI (SF-268 CNS): 3940 nM
- GI50 (K-562 leukemia): 1420 nM
- TGI (K-562 leukemia): 2750 nM
- GI50 (HOP-92 NSCLC): 1050 nM
- TGI (HOP-92 NSCLC): 2620 nM
- GI50 ([…]-0 renal): 1840 nM
- TGI (786-0 renal): 3820 nM
- GI50 (NCI-H522 lung): 1440 nM
- TGI (NCI-H522 lung): 4340 nM
- GI50 (UACC-62 melanoma): 397 nM
- TGI (UACC-62 melanoma): 1440 nM
- GI50 (PC-3 prostate): 1770 nM
- TGI (PC-3 prostate): 4330 nM
- GI50 (M14 melanoma): 2700 nM
- TGI (M14 melanoma): 7060 nM
- GI50 (HCT-116 colon): 702 nM
- TGI (HCT-116 colon): 1890 nM
- GI50 (ACHN renal): 1790 nM
- TGI (ACHN renal): 3590 nM
- GI50 (SK-OV-3 ovarian): 1370 nM
- TGI (SK-OV-3 ovarian): 2830 nM
- GI50 (NCI-H23 lung): 1560 nM
- TGI (NCI-H23 lung): 3170 nM
- GI50 (CCRF-CEM leukemia): 979 nM
- TGI (CCRF-CEM leukemia): 2260 nM
- GI50 (HS 578T breast): 2110 nM
- TGI (HS 578T breast): 4370 nM
- GI50 (MALME-3M melanoma): 2070 nM
- TGI (MALME-3M melanoma): 4620 nM

Compound: CS(=O)(=O)N1CCN(Cc2cc3nc(-c4cccc5[nH]ncc45)nc(N4CCOCC4)c3s2)CC1
- GI50 (SK-MEL-2 melanoma): 7040 nM
- TGI (SK-MEL-2 melanoma): > 100000 nM
- GI50 (OVCAR-4 ovarian): 1380 nM
- TGI (OVCAR-4 ovarian): 41200 nM
- GI50 (MDA-MB-231 breast): 2130 nM
- TGI (MDA-MB-231 breast): > 100000 nM
- GI50 (UACC-257 melanoma): 2330 nM
- TGI (UACC-257 melanoma): > 100000 nM
- GI50 (MDA-MB-468 breast): 127 nM
- TGI (MDA-MB-468 breast): 685 nM
- GI50 (NCI-H460 NSCLC): 206 nM
- TGI (NCI-H460 NSCLC): 47900 nM
- GI50 (NCI/ADR-RES ovarian): 1700 nM
- TGI (NCI/ADR-RES ovarian): 49900 nM
- GI50 (SNB-19 CNS): 4380 nM
- TGI (SNB-19 CNS): > 100000 nM
- GI50 (SN12C renal): 328 nM
- TGI (SN12C renal): 67200 nM
- GI50 (MDA-MB-435 melanoma): 1180 nM
- TGI (MDA-MB-435 melanoma): 11900 nM
- GI50 (NCI-H226 lung): 648 nM
- TGI (NCI-H226 lung): 4900 nM
- GI50 (COLO 205 colon): 480 nM
- TGI (COLO 205 colon): 34200 nM
- GI50 (EKVX NSCLC): 185 nM
- TGI (EKVX NSCLC): 2700 nM
- GI50 (CAKI-1 renal): 260 nM
- TGI (CAKI-1 renal): 6810 nM
- GI50 (DU-145 prostate): 581 nM
- TGI (DU-145 prostate): > 100000 nM
- GI50 (SF-295 CNS): 454 nM
- TGI (SF-295 CNS): 3590 nM
- GI50 (HCT-15 colon): 708 nM
- TGI (HCT-15 colon): 24100 nM
- GI50 (A549 NSCLC): 533 nM
- TGI (A549 NSCLC): > 100000 nM
- GI50 (HOP-62 NSCLC): 3110 nM
- TGI (HOP-62 NSCLC): > 100000 nM
- GI50 (BT-549 breast): 202 nM
- TGI (BT-549 breast): 2030 nM
- GI50 (TK-10 renal): 203 nM
- TGI (TK-10 renal): 1120 nM
- GI50 (OVCAR-5 ovarian): 553 nM
- TGI (OVCAR-5 ovarian): > 100000 nM
- GI50 (RPMI-8226 leukemia): 393 nM
- TGI (RPMI-8226 leukemia): 1670 nM
- GI50 (UO-31 renal): 478 nM
- TGI (UO-31 renal): 9800 nM
- GI50 (SF-539 CNS): 446 nM
- TGI (SF-539 CNS): > 100000 nM
- GI50 (U251 glioblastoma): 2340 nM
- TGI (U251 glioblastoma): > 100000 nM
- GI50 (A498 renal): 290 nM
- TGI (A498 renal): 1590 nM
- GI50 (LOX IMVI melanoma): 827 nM
- TGI (LOX IMVI melanoma): 11700 nM
- GI50 (SK-MEL-28 melanoma): 202 nM
- TGI (SK-MEL-28 melanoma): 4180 nM
- GI50 (OVCAR-3 ovarian): 280 nM
- TGI (OVCAR-3 ovarian): 4390 nM
- GI50 (IGROV1 ovarian): 38.6 nM
- TGI (IGROV1 ovarian): 215 nM
- GI50 (RXF 393 renal): 152 nM
- TGI (RXF 393 renal): 638 nM
- GI50 (SF-268 CNS): 1510 nM
- TGI (SF-268 CNS): 23300 nM
- GI50 (K-562 leukemia): 5480 nM
- TGI (K-562 leukemia): > 100000 nM
- GI50 (HOP-92 NSCLC): 202 nM
- TGI (HOP-92 NSCLC): 1490 nM
- GI50 ([…]-0 renal): 492 nM
- TGI (786-0 renal): 2770 nM
- GI50 (NCI-H522 lung): 391 nM
- TGI (NCI-H522 lung): 7580 nM
- GI50 (UACC-62 melanoma): 238 nM
- TGI (UACC-62 melanoma): 1930 nM
- GI50 (PC-3 prostate): 165 nM
- TGI (PC-3 prostate): 7730 nM
- GI50 (M14 melanoma): 916 nM
- TGI (M14 melanoma): > 100000 nM
- GI50 (HCT-116 colon): 1930 nM
- TGI (HCT-116 colon): > 100000 nM
- GI50 (ACHN renal): 460 nM
- TGI (ACHN renal): 6920 nM
- GI50 (SK-OV-3 ovarian): 169 nM
- TGI (SK-OV-3 ovarian): 1620 nM
- GI50 (NCI-H23 lung): 570 nM
- TGI (NCI-H23 lung): 18600 nM
- GI50 (CCRF-CEM leukemia): 1800 nM
- TGI (CCRF-CEM leukemia): 6980 nM
- GI50 (HS 578T breast): 295 nM
- TGI (HS 578T breast): 2150 nM
- GI50 (MALME-3M melanoma): 223 nM
- TGI (MALME-3M melanoma): 3030 nM
